Data: BindingDB's records for doi:10.1016/j.bmcl.2007.04.009 (Bristol-Myers Squibb, 2007)

Target: T1, Fatty-acid amide hydrolase 1 (Homo sapiens, UniProt O00519)
T1 sequence (O00519 whole entry): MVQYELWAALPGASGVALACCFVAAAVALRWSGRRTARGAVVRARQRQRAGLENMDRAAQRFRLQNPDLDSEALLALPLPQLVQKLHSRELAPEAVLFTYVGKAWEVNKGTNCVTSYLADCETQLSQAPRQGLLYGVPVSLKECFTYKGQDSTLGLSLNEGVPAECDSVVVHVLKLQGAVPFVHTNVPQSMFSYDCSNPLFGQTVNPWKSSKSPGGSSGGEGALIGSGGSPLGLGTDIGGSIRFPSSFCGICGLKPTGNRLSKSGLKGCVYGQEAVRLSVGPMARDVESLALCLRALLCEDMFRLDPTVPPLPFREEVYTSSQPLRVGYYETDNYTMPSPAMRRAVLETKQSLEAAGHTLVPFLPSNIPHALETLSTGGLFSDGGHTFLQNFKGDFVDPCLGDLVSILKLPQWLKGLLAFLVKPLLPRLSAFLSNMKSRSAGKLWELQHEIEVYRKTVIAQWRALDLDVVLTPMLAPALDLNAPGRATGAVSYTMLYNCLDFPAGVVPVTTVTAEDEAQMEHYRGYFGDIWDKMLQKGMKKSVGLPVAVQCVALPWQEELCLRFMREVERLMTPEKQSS
Test: FAAH Inhibition Assay
Settings: pH 9; 22 °C
Experimental: FAAH Inhibition Assay [3H]Ethanolamine produced from [3H]AEA hydrolysis was used to calculate FAAH activity and was measured by scintillation counting of the aqueous phase after extraction of the incubation mixture. Data were expressed as the percentage of [3H]-ethanolamine formed versus vehicle, after subtraction of the background radioactivity determined in the presence of arachidonyl trifluoromethyl ketone (ATFMK), an inhibitor of FAAH. IC50 values were determined using a four-parameter logistic equation for dose-response curves.

Row | Compound | IC50 [nM]
1 | CCOC(=O)C(C)CCCCCn1c(C)nc(-c2ccccc2)c1-c1ccccc1 (racemic) [D, L mixtures] | 130
2 | CCOC(=O)C(CCCCCn1c(C)nc(-c2ccccc2)c1-c1ccccc1)C(C)C (racemic) [D, L mixtures] | > 100000
3 | CCOC(=O)C(CC)CCCCCn1c(C)nc(-c2ccccc2)c1-c1ccccc1 (centres undefined) [D, L mixtures] | 9900
4 | CCOC(=O)CCCCCCCn1c(CC)nc(-c2ccccc2)c1-c1ccccc1 [ethyl 8-(2-ethyl-4,5-diphenyl-1H-imidazol-1-yl)octanoate] | 31
